# Test results from US12195427B2, “MASP-2 inhibitors and methods of use” (priority 2018, dated 2025).
# Tests used:
# Lectin Pathway = Lectin Pathway Activation Assay in Human Serum (mannan-coated ELISA, C3c detection); format: biochemical; settings: 1% human serum
# Procedure: Microtiter ELISA plate was coated with mannan from Saccharomyces cerevisiae (Sigma-Aldrich, M7504) for overnight at 4° C. in coating buffer [15 mM Na2CO3, 35 mM NaHCO3].
# MASP-2 CCP2-SP = MASP-2 CCP2-SP (Homo sapiens (Human), UniProt O00187); assay: MASP-2 co-crystallization, X-ray crystallography and structure analysis (H-bonds, van der Waals contacts); design: van der Waals contact distance, MASP-2 HIS 483 atom CD2 / van der Waals contact distance, MASP-2 HIS 483 atom NE2 / van der Waals contact distance, SER 654 C to compound atom / van der Waals contact distance, SER 654 O to compound atom / van der Waals contact distance, TRP 655 C to compound atom / van der Waals contact distance, MASP-2 GLY 528 atom CA / van der Waals contact distance TRP 655 atom CZ3 / van der Waals contact distance TRP 655 atom N / van der Waals contact distance TRP 655 atom CE3 / van der Waals contact distance GLY 656 atom C / van der Waals contact distance GLY 656 atom CA / van der Waals contact distance GLY 656 atom O / van der Waals contact distance, MASP-2 TYR 607 atom CD1 / van der Waals contact distance, MASP-2 PRO 606 atom O / d(C3,CA1) / d(CA1,N1)2 / d(H4,O1) / d(H4,O2) / d(O1,O2) / d(CA1,O2) / d(CA6,O1) / d(CA6,O2) / d(CA1,C5) / d(O2,H3) / d(N2,C2) / d(CA5,N2) / d(N2,C4) / d(N2,C6) / d(N2,CA3) / d(N2,O3) / d(O4,H2): unit not given beside the values; settings: for H-bond distance to MASP-2 GLY 656 atom N: GLY 656 N; for H-bond distance to MASP-2 GLY 656 atom O: GLY 656 O; for H-bond distance to MASP-2 SER 654 atom O: SER 654 O; for H-bond distance to MASP-2 SER 657 atom O: SER 657 O;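 for Ligand-pharmacophore element distance, pharmacophore element C2: distance from averaged pharmacophore element to bound ligand; missing value means element absent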;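 for Ligand-pharmacophore element distance, pharmacophore element C3: distance from averaged pharmacophore element to bound ligand; missing value means element absent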;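 for Ligand-pharmacophore element distance, pharmacophore element C4: distance from averaged pharmacophore element to bound ligand; missing value means element absent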;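 for Ligand-pharmacophore element distance, pharmacophore element C5: distance from averaged pharmacophore element to bound ligand; missing value means element absent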
# Sequence of MASP-2 CCP2-SP (O00187 445-686): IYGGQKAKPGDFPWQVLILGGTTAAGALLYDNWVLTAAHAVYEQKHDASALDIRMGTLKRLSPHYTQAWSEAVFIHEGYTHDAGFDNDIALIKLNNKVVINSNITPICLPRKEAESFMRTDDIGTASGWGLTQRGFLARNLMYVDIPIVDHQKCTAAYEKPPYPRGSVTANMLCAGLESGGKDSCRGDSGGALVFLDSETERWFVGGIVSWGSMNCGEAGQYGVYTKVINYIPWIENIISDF
# Sequence of MASP-2 CCP2-SP (O00187 364-432 partner): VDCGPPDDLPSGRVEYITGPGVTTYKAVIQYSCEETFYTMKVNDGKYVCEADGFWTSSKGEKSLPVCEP
# How it was run: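 Human MASP-2 CCP2-SP (± 6His) expressed in E. coli and crystallized; crystals soaked in crystallization solution containing inhibitor, cryoprotected with 20% glycerol or frozen directly. Synchrotron data at 1.0 wavelength; molecular replacement from 1Q3X, partial refinement; one ligand pose analyzed; LigPlot+ contacts may include H-bonds.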
# [1] = Table A5-1 pharmacophore: distance between elements, S2/S1 region
# [2] = Table A5-2 pharmacophore distance, S3/S4 region
# [3] = Table A7-1, between pharmacophore elements of the bound compound
structure (smiles),measurement,setting,value
"Cc1nc(N)ccc1CNC(=O)[C@H](C)NC(=O)[C@H]1C[C@H](Cc2ccccc2)CN1 [compound 1304, (2R,4S)—N—((S)-1-(((6-Amino-2-methylpyridin-3-yl)methyl)amino)-1-oxopropan-2-yl)-4-benzylpyrrolidine-2-carboxamide]",IC50,Lectin Pathway,50 to 500 nM
same,H-bond distance to MASP-2 ASP 627 atom OD2,"MASP-2 CCP2-SP; Table A1 (H-Bonds), ASP 627 OD2",3.17
same,H-bond distance to MASP-2 GLY 656 atom N,MASP-2 CCP2-SP; Table A1 (H-Bonds),3.2
same,H-bond distance to MASP-2 GLY 656 atom O,MASP-2 CCP2-SP; Table A1 (H-Bonds),2.81
same,H-bond distance to MASP-2 SER 628 atom O,"MASP-2 CCP2-SP; Table A1 (H-Bonds), SER 628 O",3.18
same,H-bond distance to MASP-2 SER 654 atom O,MASP-2 CCP2-SP; Table A1 (H-Bonds),2.97
same,H-bond distance to MASP-2 SER 657 atom O,MASP-2 CCP2-SP; Table A1 (H-Bonds),2.96
same,"van der Waals contact distance, MASP-2 HIS 483 atom CD2",MASP-2 CCP2-SP; Table A2-1,3.71
same,"van der Waals contact distance, MASP-2 HIS 483 atom NE2",MASP-2 CCP2-SP; Table A2-1,3.65
same,"van der Waals contact distance, MASP-2 GLY 528 atom CA",MASP-2 CCP2-SP; Table A2-2,3.79
same,"van der Waals contact distance, MASP-2 PHE 529 atom CD2",MASP-2 CCP2-SP; Table A2-3,3.79
same,"van der Waals contact distance, MASP-2 PHE 529 atom CE2",MASP-2 CCP2-SP; Table A2-3,3.84
same,"van der Waals contact distance, MASP-2 TYR 607 atom CD1",MASP-2 CCP2-SP; Table A2-4,3.78
same,"van der Waals contact distance, MASP-2 amino acid atom to compound atom","MASP-2 CCP2-SP; Table A2-7: SER 628 (CB, O, OG)",3.65
same,"van der Waals contact distance, VAL 653 CG1 to compound atom",MASP-2 CCP2-SP; Table A2-11,3.27
same,"van der Waals contact distance, TRP 655 CA to compound atom",MASP-2 CCP2-SP; Table A2-12,3.42
same,van der Waals contact distance TRP 655 atom CE3,"MASP-2 CCP2-SP; Table A2-13, MASP-2 TRP 655 CE3, compound atom in line below",3.78
same,van der Waals contact distance TRP 655 atom CZ3,"MASP-2 CCP2-SP; Table A2-13, MASP-2 TRP 655 CZ3",3.68
same,"van der Waals contact distance, MASP-2 amino acid atom to compound atom",MASP-2 CCP2-SP; Table A2 section before Table A2-8,3.81
same,"Ligand-pharmacophore element distance, pharmacophore element C2","MASP-2 CCP2-SP; Table A4-1, element C2",0
same,"Ligand-pharmacophore element distance, pharmacophore element C3","MASP-2 CCP2-SP; Table A4-1, element C3",0.09
same,"Ligand-pharmacophore element distance, pharmacophore element C4","MASP-2 CCP2-SP; Table A4-1, element C4",0
same,"Ligand-pharmacophore element distance, pharmacophore element C5","MASP-2 CCP2-SP; Table A4-1, element C5",0
same,"Ligand-pharmacophore element distance, pharmacophore element C6","MASP-2 CCP2-SP; Table A4-1, element C6",0
same,"Ligand-pharmacophore element distance, pharmacophore element C7","MASP-2 CCP2-SP; Table A4-1, element C7",0
same,"Ligand-pharmacophore element distance, pharmacophore element CA1","MASP-2 CCP2-SP; Table A4-1, element CA1",0.56
same,"Ligand-pharmacophore element distance, pharmacophore element CA2","MASP-2 CCP2-SP; Table A4-1, element CA2",0.23
same,"Ligand-pharmacophore element distance, pharmacophore element CA3","MASP-2 CCP2-SP; Table A4-1, element CA3",0
same,"Ligand-pharmacophore element distance, pharmacophore element CA4","MASP-2 CCP2-SP; Table A4-1, element CA4",0
same,"Ligand-pharmacophore element distance, pharmacophore element CA5","MASP-2 CCP2-SP; Table A4-1, element CA5",0
same,"Ligand-pharmacophore element distance, pharmacophore element CA6","MASP-2 CCP2-SP; Table A4-1, element CA6",0
same,"d(C3,CA1)",MASP-2 CCP2-SP; [1],2.84
same,"d(CA1,N1)2",MASP-2 CCP2-SP; [1],1.38
same,"d(CA1,O1)",MASP-2 CCP2-SP; [1],4.39
same,"d(CA1,O2)",MASP-2 CCP2-SP; [1],3.89
same,"d(H4,O1)",MASP-2 CCP2-SP; [1],4.40
same,"d(H4,O2)",MASP-2 CCP2-SP; [1],3.85
same,"d(O1,O2)",MASP-2 CCP2-SP; [1],3.37
same,"d(N2,CA2)",MASP-2 CCP2-SP; [2],5.96
same,"d(O2,H3)",MASP-2 CCP2-SP; [2],4.37
same,"d(O2,N2)",MASP-2 CCP2-SP; [2],2.62
same,"a(C3, CA1, O1)",MASP-2 CCP2-SP; Table A6-1 pharmacophore angle,149.82
same,"a(CA1, O1, O2)",MASP-2 CCP2-SP; Table A6-1 pharmacophore angle,105.87
same,"a(O1, O2, H4)",MASP-2 CCP2-SP; Table A6-1 pharmacophore angle,132.43
same,"a(N1, CA1, O1) b)","MASP-2 CCP2-SP; Table A6-1 pharmacophore angle, Methyl-amino-pyridine compounds",173.92
same,"a(O1, O2, H3)",MASP-2 CCP2-SP; Table A6-2 pharmacophore angle,147.16
same,"a(O1, O2, N2)",MASP-2 CCP2-SP; Table A6-2 pharmacophore angle,139.74
same,"a(O2, N2, CA2)",MASP-2 CCP2-SP; Table A6-2 pharmacophore angle,156.83
same,"Pharmacophore torsion angle a(C3, CA1, O1, H4)",MASP-2 CCP2-SP; [3],24.93
same,"Pharmacophore torsion angle a(H4, O1, O2, H3)",MASP-2 CCP2-SP; [3],49.79
same,"Pharmacophore torsion angle a(H4, O1, O2, N2)",MASP-2 CCP2-SP; [3],138.09
same,"Pharmacophore torsion angle a(N1, CA1, O1, H4)",MASP-2 CCP2-SP; [3],5.90
same,"Pharmacophore torsion angle a(O1, H4, O2, CA1)",MASP-2 CCP2-SP; [3],−84.58
same,"Pharmacophore torsion angle a(O1, O2, N2, CA2)","MASP-2 CCP2-SP; Table A7-2, between pharmacophore elements of the bound compound",125.90
C[C@H](NC(=O)c1cc(-c2ccccc2)c[nH]1)C(=O)NCc1ccc(C(=N)N)cc1 [compound 1030],IC50,Lectin Pathway,500 to 5000 nM
same,H-bond distance to MASP-2 GLY 656 atom N,MASP-2 CCP2-SP; Table A1 (H-Bonds),3.12
same,H-bond distance to MASP-2 GLY 656 atom O,MASP-2 CCP2-SP; Table A1 (H-Bonds),2.82
same,H-bond distance to MASP-2 SER 628 atom OG,"MASP-2 CCP2-SP; Table A1 (H-Bonds), SER 628 OG",3.17
same,H-bond distance to MASP-2 SER 654 atom O,MASP-2 CCP2-SP; Table A1 (H-Bonds),2.82
same,H-bond distance to MASP-2 SER 657 atom O,MASP-2 CCP2-SP; Table A1 (H-Bonds),2.91
same,"van der Waals contact distance, MASP-2 HIS 483 atom CD2",MASP-2 CCP2-SP; Table A2-1,3.61
same,"van der Waals contact distance, MASP-2 amino acid atom to compound atom","MASP-2 CCP2-SP; Table A2-9 second part, ARG 630, AA atoms N, NE, NH1",3.83
same,van der Waals contact distance GLY 656 atom C,"MASP-2 CCP2-SP; Table A2-13, MASP-2 GLY 656 C",3.73
same,van der Waals contact distance GLY 656 atom CA,"MASP-2 CCP2-SP; Table A2-13, MASP-2 GLY 656 CA",3.86
same,van der Waals contact distance TRP 655 atom N,"MASP-2 CCP2-SP; Table A2-13, MASP-2 TRP 655 N",3.81
same,van der Waals contact distance GLY 656 atom N,"MASP-2 CCP2-SP; Table A2-14, MASP-2 GLY 656 N",3.78
same,van der Waals contact distance SER 657 atom C,"MASP-2 CCP2-SP; Table A2-14, MASP-2 SER 657 C, columns c12-c13 (inferred)",3.82
